Where two headings read alike, the source gives them in different places.
What was measured:
Assay in all cases: biochemical
Design in all cases: Reaction Biology 371-kinase panel at Km ATP, per cent enzyme activity relative to DMSO, single dose in duplicate
Conditions in all cases: duplicate measurements, Km ATP
SNRK = SNRK (Homo sapiens, UniProt Q9NRH2)
Summary of the method: (§1)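 Percent kinase activity relative to vehicle (DMSO) is reported for a 371-kinase in vitro panel at 300 nM compound; IC50 values derive from variable-slope sigmoidal fits with the lower plateau fixed at 0.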

PDGFRa = PDGFRa (Homo sapiens, UniProt P16234)
Summary of the method: as §1

CDK5/p35 = biological target: T1, CDK5/p35 (Homo sapiens, UniProt Q00535)
T1 construct: p35
Summary of the method: as §1

ERK7/MAPK15 = ERK7/MAPK15 (Homo sapiens, UniProt Q8TD08)
Summary of the method: as §1

PHKg2 = PHKg2 (Homo sapiens, UniProt P15735)
Summary of the method: as §1

MARK3 = MARK3 (Homo sapiens, UniProt P27448)
Summary of the method: as §1

CDK14/cyclin Y (PFTK1) = CDK14/cyclin Y (PFTK1) (Homo sapiens, UniProt O94921)
Summary of the method: as §1

FRK/PTK5 = FRK/PTK5 (Homo sapiens, UniProt P42685)
Summary of the method: as §1

ZIPK/DAPK3 = ZIPK/DAPK3 (Homo sapiens, UniProt O43293)
Summary of the method: as §1

STK39/STLK3 = STK39/STLK3 (Homo sapiens, UniProt Q9UEW8)
Summary of the method: as §1

STK25/YSK1 = STK25/YSK1 (Homo sapiens, UniProt O00506)
Summary of the method: as §1

DRAK1/STK17A = DRAK1/STK17A (Homo sapiens, UniProt Q9UEE5)
Summary of the method: as §1

ROS/ROS1 = ROS/ROS1 (Homo sapiens, UniProt P08922)
Summary of the method: as §1

RIPK4 = RIPK4 (Homo sapiens, UniProt P57078)
Summary of the method: as §1

MELK = MELK (Homo sapiens, UniProt Q14680)
Summary of the method: as §1

Aurora A = biological target: T2, Aurora A (Homo sapiens, UniProt O14965)
T2 construct: gene AURKA
T2 sequence (O14965 1-403): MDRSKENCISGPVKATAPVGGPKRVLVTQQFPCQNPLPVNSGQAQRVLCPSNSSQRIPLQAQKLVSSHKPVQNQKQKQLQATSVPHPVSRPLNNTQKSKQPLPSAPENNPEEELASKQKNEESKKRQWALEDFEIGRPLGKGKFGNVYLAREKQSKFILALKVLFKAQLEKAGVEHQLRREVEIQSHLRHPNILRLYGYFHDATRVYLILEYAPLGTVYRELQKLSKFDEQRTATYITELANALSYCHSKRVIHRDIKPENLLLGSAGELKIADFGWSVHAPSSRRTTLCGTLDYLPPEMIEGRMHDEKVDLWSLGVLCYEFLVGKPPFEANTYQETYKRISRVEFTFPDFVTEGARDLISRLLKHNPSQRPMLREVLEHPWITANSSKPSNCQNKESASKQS
Summary of the method: as §1

MEK1 = biological target: T3, MEK1 (Homo sapiens, UniProt Q02750)
T3 construct: gene MAP2K1
Summary of the method: as §1

[1] = read-out: % Enzyme Activity (relative to DMSO controls) / TP-0005801 (0.3µM) / Data 1
[2] = read-out: % Enzyme Activity (relative to DMSO controls) / TP-0005801 (0.3µM) / Data 2

T3 sequence (Q02750 whole entry): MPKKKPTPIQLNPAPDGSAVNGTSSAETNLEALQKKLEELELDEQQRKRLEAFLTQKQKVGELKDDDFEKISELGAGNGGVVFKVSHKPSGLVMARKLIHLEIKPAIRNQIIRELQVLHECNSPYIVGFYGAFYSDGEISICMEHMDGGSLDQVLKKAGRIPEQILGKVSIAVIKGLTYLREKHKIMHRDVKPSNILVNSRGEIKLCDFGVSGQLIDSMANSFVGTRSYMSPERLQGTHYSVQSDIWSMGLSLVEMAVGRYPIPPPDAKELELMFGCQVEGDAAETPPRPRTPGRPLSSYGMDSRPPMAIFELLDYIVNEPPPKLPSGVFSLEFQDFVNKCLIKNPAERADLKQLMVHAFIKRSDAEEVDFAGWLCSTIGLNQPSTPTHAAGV
ROS/ROS1, sequence (P08922 whole entry): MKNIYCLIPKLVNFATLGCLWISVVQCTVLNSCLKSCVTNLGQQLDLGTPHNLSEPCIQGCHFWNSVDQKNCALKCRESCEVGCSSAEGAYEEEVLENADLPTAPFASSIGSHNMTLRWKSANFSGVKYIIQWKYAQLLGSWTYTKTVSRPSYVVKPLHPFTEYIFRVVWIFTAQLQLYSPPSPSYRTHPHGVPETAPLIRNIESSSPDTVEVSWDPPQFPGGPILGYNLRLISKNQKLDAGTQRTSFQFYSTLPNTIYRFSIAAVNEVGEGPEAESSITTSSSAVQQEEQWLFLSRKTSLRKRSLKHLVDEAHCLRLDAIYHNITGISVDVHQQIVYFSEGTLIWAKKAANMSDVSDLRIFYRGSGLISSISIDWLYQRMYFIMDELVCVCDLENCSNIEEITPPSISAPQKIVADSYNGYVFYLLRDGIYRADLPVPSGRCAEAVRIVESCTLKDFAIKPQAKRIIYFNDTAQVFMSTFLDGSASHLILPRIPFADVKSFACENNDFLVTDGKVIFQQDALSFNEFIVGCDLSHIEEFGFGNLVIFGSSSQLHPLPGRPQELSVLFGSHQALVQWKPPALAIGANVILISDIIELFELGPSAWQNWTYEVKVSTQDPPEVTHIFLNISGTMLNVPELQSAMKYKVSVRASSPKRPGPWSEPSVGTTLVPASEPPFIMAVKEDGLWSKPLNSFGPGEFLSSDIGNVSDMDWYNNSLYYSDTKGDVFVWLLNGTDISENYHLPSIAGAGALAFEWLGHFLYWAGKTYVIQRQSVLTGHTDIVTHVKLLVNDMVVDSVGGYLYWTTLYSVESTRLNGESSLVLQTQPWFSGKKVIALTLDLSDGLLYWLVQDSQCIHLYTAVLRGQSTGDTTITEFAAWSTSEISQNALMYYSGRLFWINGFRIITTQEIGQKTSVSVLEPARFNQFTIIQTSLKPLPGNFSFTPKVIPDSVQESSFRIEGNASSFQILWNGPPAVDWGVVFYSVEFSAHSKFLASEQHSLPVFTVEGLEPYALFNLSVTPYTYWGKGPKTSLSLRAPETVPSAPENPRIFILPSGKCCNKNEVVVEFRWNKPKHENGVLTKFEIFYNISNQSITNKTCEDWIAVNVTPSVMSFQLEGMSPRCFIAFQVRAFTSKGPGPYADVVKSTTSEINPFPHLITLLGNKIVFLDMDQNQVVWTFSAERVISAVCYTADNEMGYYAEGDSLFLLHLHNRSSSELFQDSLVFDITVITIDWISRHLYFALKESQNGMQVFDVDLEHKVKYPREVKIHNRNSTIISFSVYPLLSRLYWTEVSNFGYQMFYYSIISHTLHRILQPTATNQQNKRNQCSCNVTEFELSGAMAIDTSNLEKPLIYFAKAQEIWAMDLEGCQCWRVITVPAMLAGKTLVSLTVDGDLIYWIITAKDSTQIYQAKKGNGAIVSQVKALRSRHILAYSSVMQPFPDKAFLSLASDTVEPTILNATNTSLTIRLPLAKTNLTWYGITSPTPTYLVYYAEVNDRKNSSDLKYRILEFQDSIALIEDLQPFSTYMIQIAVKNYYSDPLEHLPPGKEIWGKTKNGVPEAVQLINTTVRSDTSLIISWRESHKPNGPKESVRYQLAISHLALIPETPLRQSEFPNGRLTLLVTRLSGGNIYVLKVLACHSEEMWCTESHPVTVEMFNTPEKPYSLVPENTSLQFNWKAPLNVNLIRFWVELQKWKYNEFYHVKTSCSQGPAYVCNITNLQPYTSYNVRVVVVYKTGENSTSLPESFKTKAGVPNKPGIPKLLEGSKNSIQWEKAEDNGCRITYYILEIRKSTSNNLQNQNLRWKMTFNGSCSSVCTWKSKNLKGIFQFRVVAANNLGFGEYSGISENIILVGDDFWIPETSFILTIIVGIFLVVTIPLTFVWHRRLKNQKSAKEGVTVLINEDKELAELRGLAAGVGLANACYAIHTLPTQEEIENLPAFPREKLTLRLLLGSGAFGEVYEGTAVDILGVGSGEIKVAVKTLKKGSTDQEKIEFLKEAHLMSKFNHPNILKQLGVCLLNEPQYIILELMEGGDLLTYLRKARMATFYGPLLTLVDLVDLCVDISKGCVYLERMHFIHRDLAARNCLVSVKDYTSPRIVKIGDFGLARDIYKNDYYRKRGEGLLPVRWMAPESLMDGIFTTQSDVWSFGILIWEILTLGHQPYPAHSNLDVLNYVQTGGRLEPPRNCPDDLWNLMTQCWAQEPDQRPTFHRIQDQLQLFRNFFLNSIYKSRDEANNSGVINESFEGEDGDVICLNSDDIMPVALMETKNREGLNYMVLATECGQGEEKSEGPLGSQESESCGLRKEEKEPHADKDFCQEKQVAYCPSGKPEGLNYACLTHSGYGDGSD
ZIPK/DAPK3, sequence (O43293 whole entry): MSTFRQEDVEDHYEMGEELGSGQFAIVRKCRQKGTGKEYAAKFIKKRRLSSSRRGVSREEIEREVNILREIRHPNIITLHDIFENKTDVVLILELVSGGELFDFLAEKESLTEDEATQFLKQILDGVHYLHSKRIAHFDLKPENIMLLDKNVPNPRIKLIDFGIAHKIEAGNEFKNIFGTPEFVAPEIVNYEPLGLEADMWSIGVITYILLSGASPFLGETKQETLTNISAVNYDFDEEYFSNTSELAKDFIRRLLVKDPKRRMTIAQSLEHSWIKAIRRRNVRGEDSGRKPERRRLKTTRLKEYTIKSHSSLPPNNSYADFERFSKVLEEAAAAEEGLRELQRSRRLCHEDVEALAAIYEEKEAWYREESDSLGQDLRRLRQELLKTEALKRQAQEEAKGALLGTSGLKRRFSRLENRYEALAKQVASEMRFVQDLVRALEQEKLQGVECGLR
RIPK4, sequence (P57078 whole entry): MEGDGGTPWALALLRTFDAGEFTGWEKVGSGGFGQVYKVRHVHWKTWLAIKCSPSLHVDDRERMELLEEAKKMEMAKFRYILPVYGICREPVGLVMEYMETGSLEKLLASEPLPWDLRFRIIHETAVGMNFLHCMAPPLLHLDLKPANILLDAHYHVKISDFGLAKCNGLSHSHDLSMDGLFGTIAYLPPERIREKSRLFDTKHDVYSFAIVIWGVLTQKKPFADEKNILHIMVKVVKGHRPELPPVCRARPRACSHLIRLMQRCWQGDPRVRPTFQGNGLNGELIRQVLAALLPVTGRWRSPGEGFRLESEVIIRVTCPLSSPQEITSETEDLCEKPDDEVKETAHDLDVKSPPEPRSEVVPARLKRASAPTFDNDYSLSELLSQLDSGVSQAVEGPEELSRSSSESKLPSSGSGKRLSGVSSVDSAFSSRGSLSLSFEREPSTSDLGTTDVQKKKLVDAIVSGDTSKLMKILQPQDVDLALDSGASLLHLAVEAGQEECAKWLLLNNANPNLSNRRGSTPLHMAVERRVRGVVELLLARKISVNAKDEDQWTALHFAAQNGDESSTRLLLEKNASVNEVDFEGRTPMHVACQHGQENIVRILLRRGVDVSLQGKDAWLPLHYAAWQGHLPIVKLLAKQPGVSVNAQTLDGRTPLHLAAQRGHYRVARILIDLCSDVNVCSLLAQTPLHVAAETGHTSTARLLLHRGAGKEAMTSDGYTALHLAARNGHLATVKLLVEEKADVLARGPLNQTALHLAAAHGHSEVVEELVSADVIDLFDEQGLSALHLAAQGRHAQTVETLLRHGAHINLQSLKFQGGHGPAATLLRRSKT
SNRK, sequence (Q9NRH2 whole entry): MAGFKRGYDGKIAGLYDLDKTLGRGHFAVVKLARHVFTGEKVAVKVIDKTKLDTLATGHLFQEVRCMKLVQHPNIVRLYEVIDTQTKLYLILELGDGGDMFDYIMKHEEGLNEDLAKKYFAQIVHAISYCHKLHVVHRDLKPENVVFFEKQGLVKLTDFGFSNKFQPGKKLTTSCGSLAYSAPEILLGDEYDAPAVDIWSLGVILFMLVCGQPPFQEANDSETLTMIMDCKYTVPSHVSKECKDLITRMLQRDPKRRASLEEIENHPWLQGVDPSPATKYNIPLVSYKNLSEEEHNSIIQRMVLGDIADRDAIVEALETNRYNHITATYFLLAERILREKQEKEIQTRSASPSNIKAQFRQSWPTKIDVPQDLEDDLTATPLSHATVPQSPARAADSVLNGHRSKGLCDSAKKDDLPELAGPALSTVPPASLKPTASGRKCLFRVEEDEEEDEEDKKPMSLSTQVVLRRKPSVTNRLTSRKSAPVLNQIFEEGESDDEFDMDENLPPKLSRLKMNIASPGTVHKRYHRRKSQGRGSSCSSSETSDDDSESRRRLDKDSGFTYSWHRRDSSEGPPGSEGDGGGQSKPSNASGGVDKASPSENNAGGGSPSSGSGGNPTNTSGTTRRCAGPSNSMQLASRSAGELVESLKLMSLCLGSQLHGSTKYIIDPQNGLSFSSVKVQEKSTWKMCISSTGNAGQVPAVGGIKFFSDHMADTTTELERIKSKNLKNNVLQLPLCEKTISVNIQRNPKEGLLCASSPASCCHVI

remaining activity at 0.3 µM (SNRK; [1]): 98.8%
remaining activity at 0.3 µM (SNRK; [2]): 98.6%
remaining activity at 0.3 µM (PDGFRa; [1]): 84.6%
remaining activity at 0.3 µM (PDGFRa; [2]): 84.5%
remaining activity at 0.3 µM (CDK5/p35; [1]): 99.5%
remaining activity at 0.3 µM (CDK5/p35; [2]): 99.1%
remaining activity at 0.3 µM (PHKg2; [1]): 72.4%
remaining activity at 0.3 µM (PHKg2; [2]): 71.3%
remaining activity at 0.3 µM (MARK3; [1]): 95.4%
remaining activity at 0.3 µM (MARK3; [2]): 91.7%
remaining activity at 0.3 µM (CDK14/cyclin Y (PFTK1); [1]): 91.8%
remaining activity at 0.3 µM (CDK14/cyclin Y (PFTK1); [2]): 90.2%
remaining activity at 0.3 µM (FRK/PTK5; [1]): 72%
remaining activity at 0.3 µM (FRK/PTK5; [2]): 71%
remaining activity at 0.3 µM (ZIPK/DAPK3; [1]): 81%
remaining activity at 0.3 µM (ZIPK/DAPK3; [2]): 79.4%
remaining activity at 0.3 µM (STK39/STLK3; [1]): 61.2%
remaining activity at 0.3 µM (STK39/STLK3; [2]): 61.1%
remaining activity at 0.3 µM (STK25/YSK1; [1]): 85.8%
remaining activity at 0.3 µM (STK25/YSK1; [2]): 80.9%
remaining activity at 0.3 µM (DRAK1/STK17A; [1]): 92%
remaining activity at 0.3 µM (DRAK1/STK17A; [2]): 88.6%
remaining activity at 0.3 µM (ROS/ROS1; [1]): 10.1%
remaining activity at 0.3 µM (ROS/ROS1; [2]): 9.96%
remaining activity at 0.3 µM (RIPK4; [1]): 117%
remaining activity at 0.3 µM (RIPK4; [2]): 108%
remaining activity at 0.3 µM (MELK; [1]): 93.1%
remaining activity at 0.3 µM (MELK; [2]): 90.3%
remaining activity at 0.3 µM (Aurora A; [1]): 101%
remaining activity at 0.3 µM (Aurora A; [2]): 99.6%
remaining activity at 0.3 µM (MEK1; [1]): 95.7%
remaining activity at 0.3 µM (MEK1; [2]): 95.5%
Structure (SMILES): COc1cc(N2CCN(C)CC2)c(C)cc1Nc1ncc(Br)c(Nc2cccnc2N(C)C)n1 [TP-5801]
remaining activity at 0.3 µM (ERK7/MAPK15; [1]): 97.2%
remaining activity at 0.3 µM (ERK7/MAPK15; [2]): 96.4%
